Source: ChEMBL document CHEMBL3603734, “Design and biological evaluation of novel quinolone-based metronidazole derivatives as potent Cu(2+) mediated DNA-targeting antibacterial agents” (Bioorg Med Chem Lett, 2015)
≈ marks a conversion by molar mass, not a printed value. Calls of active or inactive are those of the source. No cut-off for these calls is given here.

Experiments:
Cyberlindnera jadinii = experiment: Antifungal activity against Candida utilis ATCC 9950 after 24 hrs by microbroth dilution method; format: functional; details: Williopsis jadinii, ATCC 9950, 24 h
[1] = Cytotoxicity against HEK293 cells assessed as inhibition of cell proliferation at 10^-1 umol/L after 72 hrs by MTT assay relative to control; format: cell-based; details: human
[2] = Cytotoxicity against HEK293 cells assessed as inhibition of cell proliferation at 10^-2 umol/L after 72 hrs by MTT assay relative to control; format: cell-based; details: human
Pseudomonas aeruginosa [3] = experiment: Binding affinity to Pseudomonas aeruginosa DNA assessed as Stem-Volmer quenching constant by fluorescence spectroscopic analysis in presence of KI
Bacillus spizizenii = experiment: Antibacterial activity against Bacillus subtilis ATCC 6633 after 24 hrs by microbroth dilution method; format: functional; details: ATCC 6633, 24 h
[4] = Cytotoxicity against mouse C2C12 cells assessed as inhibition of cell proliferation at 3 x 10^-2 umol/L after 72 hrs by MTT assay relative to control; format: cell-based
[5] = Cytotoxicity against MEF assessed as inhibition of cell proliferation at 1 umol/L after 72 hrs by MTT assay relative to control; format: cell-based; details: mouse, MEF cells
[6] = Cytotoxicity against HEK293 cells assessed as inhibition of cell proliferation at 3 x 10^-1 umol/L after 72 hrs by MTT assay relative to control; format: cell-based; details: human
[7] = Ionization constant, pKa of the compound by UV spectroscopic analysis; format: physicochemical
[8] = Cytotoxicity against HEK293 cells assessed as inhibition of cell proliferation at 10^2 umol/L after 72 hrs by MTT assay relative to control; format: cell-based; details: human
[9] = Cytotoxicity against HEK293 cells assessed as inhibition of cell proliferation at 10 umol/L after 72 hrs by MTT assay relative to control; format: cell-based; details: human
Micrococcus luteus = experiment: Antibacterial activity against Micrococcus luteus ATCC 4698 after 24 hrs by microbroth dilution method; format: functional; details: NCTC 2665, 24 h
Pseudomonas aeruginosa [10] = experiment: Binding affinity to Pseudomonas aeruginosa DNA up to 1.4 x 10^-5 mol/L by UV-vis absorption spectra analysis
[11] = Cytotoxicity against HEK293 cells assessed as inhibition of cell proliferation at 30 umol/L after 72 hrs by MTT assay relative to control; format: cell-based; details: human
[12] = Cytotoxicity against MEF assessed as inhibition of cell proliferation at 10^2 umol/L after 72 hrs by MTT assay relative to control; format: cell-based; details: mouse, MEF cells
[13] = Cytotoxicity against mouse C2C12 cells assessed as inhibition of cell proliferation at 3 umol/L after 72 hrs by MTT assay relative to control; format: cell-based
Staphylococcus aureus [14] = experiment: Antibacterial activity against methicillin-resistant Staphylococcus aureus N315 after 24 hrs by microbroth dilution method; format: functional; details: N315, 24 h
[15] = Cytotoxicity against mouse C2C12 cells assessed as inhibition of cell proliferation at 1 umol/L after 72 hrs by MTT assay relative to control; format: cell-based
C2C12 = experiment: Cytotoxicity against mouse C2C12 cells assessed as inhibition of cell proliferation after 72 hrs by MTT assay; format: cell-based; details: C2C12, 72 h
Bacillus = experiment: Antibacterial activity against Bacillus proteus ATCC 13315 after 24 hrs by microbroth dilution method; format: functional; details: ATCC 13315, 24 h
Salmonella enterica = experiment: Antibacterial activity against Salmonella enterica ATCC 14028 after 24 hrs by microbroth dilution method; format: functional; details: ATCC 14028, 24 h
Pseudomonas aeruginosa [16] = experiment: Binding affinity to Pseudomonas aeruginosa DNA assessed as 1:1 compound-DNA complex formation at 6 x 10^-6 mol/L by fluorescence spectroscopic analysis in presence of Cu2+
[17] = Cytotoxicity against MEF assessed as inhibition of cell proliferation at 3 x 10^2 umol/L after 72 hrs by MTT assay relative to control; format: cell-based; details: mouse, MEF cells
[18] = Cytotoxicity against mouse C2C12 cells assessed as inhibition of cell proliferation at 3 x 10^2 umol/L after 72 hrs by MTT assay relative to control; format: cell-based
Saccharomyces cerevisiae = experiment: Antifungal activity against Saccharomyces cerevisiae ATCC 9763 after 24 hrs by microbroth dilution method; format: functional; details: ATCC 9763, 24 h
[19] = Cytotoxicity against MEF assessed as inhibition of cell proliferation at 10^-1 umol/L after 72 hrs by MTT assay relative to control; format: cell-based; details: mouse, MEF cells
[20] = Cytotoxicity against mouse C2C12 cells assessed as inhibition of cell proliferation at 30 umol/L after 72 hrs by MTT assay relative to control; format: cell-based
[21] = Cytotoxicity against mouse C2C12 cells assessed as inhibition of cell proliferation at 10^-2 umol/L after 72 hrs by MTT assay relative to control; format: cell-based
[22] = Cytotoxicity against mouse C2C12 cells assessed as inhibition of cell proliferation at 10^2 umol/L after 72 hrs by MTT assay relative to control; format: cell-based
[23] = Cytotoxicity against mouse C2C12 cells assessed as inhibition of cell proliferation at 10^-1 umol/L after 72 hrs by MTT assay relative to control; format: cell-based
[24] = Cytotoxicity against HEK293 cells assessed as inhibition of cell proliferation at 1 umol/L after 72 hrs by MTT assay relative to control; format: cell-based; details: human
Candida albicans = experiment: Antifungal activity against Candida albicans ATCC 10231 after 24 hrs by microbroth dilution method; format: functional; details: ATCC 10231, 24 h
[25] = Cytotoxicity against MEF assessed as inhibition of cell proliferation at 3 x 10^-1 umol/L after 72 hrs by MTT assay relative to control; format: cell-based; details: mouse, MEF cells
[26] = Cytotoxicity against MEF assessed as inhibition of cell proliferation at 3 umol/L after 72 hrs by MTT assay relative to control; format: cell-based; details: mouse, MEF cells
[27] = Cytotoxicity against MEF assessed as inhibition of cell proliferation at 10^-2 umol/L after 72 hrs by MTT assay relative to control; format: cell-based; details: mouse, MEF cells
[28] = Cytotoxicity against MEF assessed as inhibition of cell proliferation at 30 umol/L after 72 hrs by MTT assay relative to control; format: cell-based; details: mouse, MEF cells
Pseudomonas aeruginosa [29] = experiment: Binding affinity to Cu2+ assessed as 2:1 compound-metal complex formation at 6 x 10^-6 mol/L by fluorescence spectroscopic analysis
Pichia norvegensis = experiment: Antifungal activity against Candida mycoderma ATCC 9888 after 24 hrs by microbroth dilution method; format: functional; details: ATCC 9888, 24 h
Staphylococcus aureus [30] = experiment: Antibacterial activity against Staphylococcus aureus ATCC 25923 after 24 hrs by microbroth dilution method; format: functional; details: ATCC 25923, 24 h
[31] = Cytotoxicity against mouse C2C12 cells assessed as inhibition of cell proliferation at 3 x 10^-1 umol/L after 72 hrs by MTT assay relative to control; format: cell-based
Pseudomonas aeruginosa [32] = experiment: Binding affinity to Pseudomonas aeruginosa DNA by fluorescence spectroscopic analysis
[33] = Cytotoxicity against HEK293 cells assessed as inhibition of cell proliferation at 3 umol/L after 72 hrs by MTT assay relative to control; format: cell-based; details: human
HEK293 = experiment: Cytotoxicity against HEK293 cells assessed as inhibition of cell proliferation after 72 hrs by MTT assay; format: cell-based; details: Homo sapiens, HEK293, 72 h
[34] = Cytotoxicity against HEK293 cells assessed as inhibition of cell proliferation at 3 x 10^2 umol/L after 72 hrs by MTT assay relative to control; format: cell-based; details: human
[35] = Cytotoxicity against HEK293 cells assessed as inhibition of cell proliferation at 3 x 10^-2 umol/L after 72 hrs by MTT assay relative to control; format: cell-based; details: human
MEF = experiment: Cytotoxicity against MEF assessed as inhibition of cell proliferation after 72 hrs by MTT assay; format: cell-based; details: Mus musculus
Aspergillus flavus = experiment: Antifungal activity against Aspergillus flavus ATCC 204304 after 24 hrs by microbroth dilution method; format: functional; details: ATCC 204304, 24 h
Escherichia coli = experiment: Antibacterial activity against Escherichia coli JM109 after 24 hrs by microbroth dilution method; format: functional; details: JM109, 24 h
[36] = Cytotoxicity against MEF assessed as inhibition of cell proliferation at 3 x 10^-2 umol/L after 72 hrs by MTT assay relative to control; format: cell-based; details: mouse, MEF cells
Pseudomonas aeruginosa [37] = experiment: Antibacterial activity against Pseudomonas aeruginosa ATCC 27853 after 24 hrs by microbroth dilution method; format: functional; details: ATCC 27853, 24 h
[38] = Cytotoxicity against mouse C2C12 cells assessed as inhibition of cell proliferation at 10 umol/L after 72 hrs by MTT assay relative to control; format: cell-based
[39] = Cytotoxicity against MEF assessed as inhibition of cell proliferation at 10 umol/L after 72 hrs by MTT assay relative to control; format: cell-based; details: mouse, MEF cells

## Cc1ncc([N+](=O)[O-])n1CC(O)CNC1CCN(c2c(F)cc3c(=O)c(C(=O)O)cn(C4CC4)c3c2Cl)C1 (configuration not stated)
Cyberlindnera jadinii
  MIC: 2 µg/mL (≈ 3.64 µM)
[1]
  inhibition at 72 h, 0.1 umol/L: 0.9%
[2]
  inhibition at 72 h, 0.01 umol/L: 0.1%
Pseudomonas aeruginosa [3]
  KSV: 7.02 L/mol
Bacillus spizizenii
  MIC: 0.25 µg/mL (≈ 0.455 µM)
[4]
  inhibition at 72 h, 0.03 umol/L: 0%
[5]
  inhibition at 72 h, 1 µM: 0%
[6]
  inhibition at 72 h, 0.3 umol/L: 4.1%
[7]
  pKa: 6.48
[8]
  inhibition at 72 h, 100 umol/L: 35.8%
[9]
  inhibition at 72 h, 10 µM: 21.8%
Micrococcus luteus
  MIC: 0.25 µg/mL (≈ 0.455 µM)
Pseudomonas aeruginosa [10]
  Activity: Active
[11]
  inhibition at 72 h, 30 µM: 25.7%
[12]
  inhibition at 72 h, 100 umol/L: 51.7%
[13]
  inhibition at 72 h, 3 µM: 4%
Staphylococcus aureus [14]
  MIC: 0.25 µg/mL (≈ 0.455 µM)
[15]
  inhibition at 72 h, 1 µM: 0.7%
C2C12
  IC50: 57 µg/mL (≈ 104 µM)
Bacillus
  MIC: 0.25 µg/mL (≈ 0.455 µM)
Salmonella enterica
  MIC: 0.5 µg/mL (≈ 0.911 µM)
Pseudomonas aeruginosa [16]
  Activity: Active
[17]
  inhibition at 72 h, 300 umol/L: 58.1%
[18]
  inhibition at 72 h, 300 umol/L: 65.5%
Saccharomyces cerevisiae
  MIC: 8 µg/mL (≈ 14.6 µM)
[19]
  inhibition at 72 h, 0.1 umol/L: 0%
[20]
  inhibition at 72 h, 30 µM: 22.4%
[21]
  inhibition at 72 h, 0.01 umol/L: 0%
[22]
  inhibition at 72 h, 100 umol/L: 58.2%
[23]
  inhibition at 72 h, 0.1 umol/L: 0%
[24]
  inhibition at 72 h, 1 µM: 5.3%
Candida albicans
  MIC: 16 µg/mL (≈ 29.1 µM)
[25]
  inhibition at 72 h, 0.3 umol/L: 0%
[26]
  inhibition at 72 h, 3 µM: 8.4%
[27]
  inhibition at 72 h, 0.01 umol/L: 0%
[28]
  inhibition at 72 h, 30 µM: 39.9%
Pseudomonas aeruginosa [29]
  Activity: Active
Pichia norvegensis
  MIC: 8 µg/mL (≈ 14.6 µM)
Staphylococcus aureus [30]
  MIC: 0.5 µg/mL (≈ 0.911 µM)
[31]
  inhibition at 72 h, 0.3 umol/L: 0.3%
Pseudomonas aeruginosa [32]
  Activity: inactive
[33]
  inhibition at 72 h, 3 µM: 13%
HEK293
  IC50: 126 µg/mL (≈ 230 µM)
[34]
  inhibition at 72 h, 300 umol/L: 57.9%
[35]
  inhibition at 72 h, 0.03 umol/L: 1.5%
MEF
  IC50: 60 µg/mL (≈ 109 µM)
Aspergillus flavus
  MIC: 4 µg/mL (≈ 7.29 µM)
Escherichia coli
  MIC: 2 µg/mL (≈ 3.64 µM)
[36]
  inhibition at 72 h, 0.03 umol/L: 0%
Pseudomonas aeruginosa [37]
  MIC: 0.25 µg/mL (≈ 0.455 µM)
[38]
  inhibition at 72 h, 10 µM: 10.3%
[39]
  inhibition at 72 h, 10 µM: 22.7%
